Measurements taken from patent US7973024B2, “24-sulfoximine vitamin D3 compounds” (Cyctochroma Inc., priority 2002, dated 2011).

Columns and labels:
CYP24 [1] = target: T1, CYP24 (Homo sapiens, UniProt Q07973); test: CYP24 enzyme assay (induced HPK1A-ras cells); type: cell-based; details: HPK1A-ras cells induced with 1,25(OH)2D3; [3H]-1,25(OH)2D3 substrate, 2 hour
T1 construct: expressed in transfected cells
T1 sequence (Q07973 36-514): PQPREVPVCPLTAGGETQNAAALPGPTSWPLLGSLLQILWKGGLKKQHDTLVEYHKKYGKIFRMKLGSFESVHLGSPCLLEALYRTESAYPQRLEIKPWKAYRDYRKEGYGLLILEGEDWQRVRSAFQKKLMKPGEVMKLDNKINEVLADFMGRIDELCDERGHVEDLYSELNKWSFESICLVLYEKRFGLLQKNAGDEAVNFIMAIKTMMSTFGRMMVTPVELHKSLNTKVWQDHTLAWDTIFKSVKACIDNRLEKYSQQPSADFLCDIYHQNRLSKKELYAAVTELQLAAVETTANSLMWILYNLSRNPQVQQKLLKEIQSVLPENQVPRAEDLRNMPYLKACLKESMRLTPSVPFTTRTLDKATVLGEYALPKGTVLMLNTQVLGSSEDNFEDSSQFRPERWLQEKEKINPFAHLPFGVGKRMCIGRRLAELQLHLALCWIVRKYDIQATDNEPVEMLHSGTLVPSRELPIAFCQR
Method: 1.25(OH)2D3 10^−5 M (Sigma, St. Louis, Mo.);
Preparation of 10^−5 M working solution is as follows:
Dissolve 1 mg of 1,25(OH)2D3 into 480 μl of isopropanol to make 5×10^−3 M stock solution. Store at −70° C. until needed. Aliquot 1 μl of 1.25(OH)2D3 5×10^−3 M stock solution to 499 μl of isopropanol to make 1.25(OH)2D3 10^−5 working solution. Store at −20° C. until needed. […] Induction of HPKIA-ras cells (The day before assay) • When the HPK1A-ras cells were 80-90% confluent, added 1 μL 10^−5 M 1.25(OH)2D3 to 1 mL medium in the plate (final concentration is 10^−8 M). • 2. Preparation of cell suspension • After 18 to 20 hours induction, removed the medium and washed the cell twice with PBS. Then tripsinized the cells from plate, centrifuged (2,000 rpm, 5 min) and suspended cells pellet in DMEM medium+1% BSA. • Counted the cells and adjusted cells density to 250,000/150 μL, added 150 μL cell suspension to each well in 48-well plate (including 3 wells as a no cell control, and 3 well cells without drug or inhibitor as controls). • 3. […] Kept the plate in 37° C. for 10 min. • 4. Preparation of substrate • For each ml required, added 972 μl of DMEM+1% BSA medium, 20 μl of 3H-1,25(OH)2D3, and 8 μl of 100 nM DPPD to a tube and vortexed. • 5. Incubation • Added 25 μL substrate to each well, incubated the plate at 37° C. for 2 hour. • Added 25 μL substrate to counting plate (2 well) as a total count. • 6. Lipid Extraction and Counting • Added 500 μL methanol to each well to stop the reaction, transferred them to tube. • Added 250 μL dichloromethane and vortex. • Added 250 μL dichloromethane and […] saturated KCI, and vortex. • Centrifuged at 4000 rpm for 5 min. • Transferred 100 μL of aqueous phase (upper phase) to counting plastic counting plate. Added 600 μL of scintillation fluid to each well. Counted the plate in scintillation counter. • 7. Calculation Enzyme Activity • CPM of cell control after subtraction of CPM of non-cell control (NCC) was as 100% enzyme activity.
• Dilution of test compounds • Stock 10^−3 M

CYP24 [2] = target: T1, CYP24; test: CYP24 enzyme assay (stable cell line V79-CYP24 cells); type: cell-based; details: [3H-1β]-1α,25(OH)2D3 20 nM, 2 hours
Method: 1. Preparation of Cell Suspension • On the day of the assay, washed the monolayer of V79-CYP24 cells once with 1×PBS buffer and then trypsinize for 5 min at room temperature (approx. 22° C.). Added 1×PBS. Collected cells into tube, centrifuged cells (500×g, 5 min) and resuspended in DMEM+1% BSA media.
2. Cell Plating • Added 150 μl of cell suspension to appropriately labelled wells of a 48-well plate. Incubated plate for 30 minutes at 37° C. in a humidified atmosphere containing 5% CO2 for adherence of cells to wells.
3. Compound Addition • Added 25 μl of inhibitor (10^−6 to 10^−9 M) and then after 10 min added 25 μl of substrate [^3H-1β]-1α,25(OH)2D3 (20 nM) for 2 hours at 37° C. in a humidified atmosphere containing 5% CO2. Both inhibitor and substrate were prepared in DMEM with 1% BSA media in the absence and presence of 100 μM DPPD.
4. Lipid Extraction and Counting • Added 500 μL of methanol to stop the reaction. Transferred to tube. Added 250 μl of dichloromethane and vortexed. Added 250 μl of dichloromethane and 250 μl of saturated KCL and vortexed. Centrifuged at 4000 rpm for 5 min. Triplicate 100 μl aliquots of aqueous fraction were mixed with 600 μl of scintillation fluid and the radioactivity was measured using a scintillation counter. All values were normalized for background. (iii) Results.

CYP27A1 = target: T2, CYP27A1 (Homo sapiens, UniProt Q02318); test: CYP27A1 enzyme assay; type: biochemical
T2 sequence (Q02318 34-531): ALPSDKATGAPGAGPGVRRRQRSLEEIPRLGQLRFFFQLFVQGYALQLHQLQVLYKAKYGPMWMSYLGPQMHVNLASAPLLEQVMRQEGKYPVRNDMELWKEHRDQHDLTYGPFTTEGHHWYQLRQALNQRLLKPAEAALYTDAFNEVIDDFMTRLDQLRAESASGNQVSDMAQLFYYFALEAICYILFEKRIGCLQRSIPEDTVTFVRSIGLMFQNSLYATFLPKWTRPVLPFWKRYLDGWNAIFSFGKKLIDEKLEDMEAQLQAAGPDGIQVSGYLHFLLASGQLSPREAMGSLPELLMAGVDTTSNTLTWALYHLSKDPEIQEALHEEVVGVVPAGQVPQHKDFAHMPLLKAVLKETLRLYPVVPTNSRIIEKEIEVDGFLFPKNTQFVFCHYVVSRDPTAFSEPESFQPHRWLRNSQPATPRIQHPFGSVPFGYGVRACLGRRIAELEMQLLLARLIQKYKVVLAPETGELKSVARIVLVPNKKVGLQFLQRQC

IC50 (CYP24 [1]) [nM]	IC50 (CYP24 [2]) [nM]	IC50 (CYP27A1) [nM]	Structure (SMILES)
66	29	> 1000	C=C1/C(=C\C=C2/CCC[C@]3(C)[C@@H]([C@H](C)CCS(=O)(=NC)c4ccccc4)CC[C@@H]23)C[C@@H](O)C[C@@H]1O (single isomer, unassigned) [I(e)]
5	4		C=C1/C(=C\C=C2/CCC[C@]3(C)[C@@H]([C@H](C)CCS(=N)(=O)c4ccccc4)CC[C@@H]23)C[C@@H](O)C[C@@H]1O (single isomer, unassigned) [I(a)]
20	26	> 1000	C=C1/C(=C\C=C2/CCC[C@]3(C)[C@@H]([C@H](C)CCS(=O)(=NC)c4ccccc4)CC[C@@H]23)C[C@@H](O)C[C@@H]1O (single isomer, unassigned) [I(g)]
	8.5		C[C@H](CCS(=N)(=O)c1ccccc1)[C@H]1CC[C@H]2/C(=C/C=C3C[C@@H](O)C[C@H](O)C3)CCC[C@]12C (single isomer, unassigned) [I(i), 24-Phenyl Sulfoximine 19-Nor-Vitamin-D3]
